This experiment deals with T1, LPA2 receptor (LPA2R) (Homo sapiens, UniProt Q9HBW0).
T1 construct: expressed in transfected cells; host or cells: U2OS
T1 sequence (Q9HBW0 whole entry): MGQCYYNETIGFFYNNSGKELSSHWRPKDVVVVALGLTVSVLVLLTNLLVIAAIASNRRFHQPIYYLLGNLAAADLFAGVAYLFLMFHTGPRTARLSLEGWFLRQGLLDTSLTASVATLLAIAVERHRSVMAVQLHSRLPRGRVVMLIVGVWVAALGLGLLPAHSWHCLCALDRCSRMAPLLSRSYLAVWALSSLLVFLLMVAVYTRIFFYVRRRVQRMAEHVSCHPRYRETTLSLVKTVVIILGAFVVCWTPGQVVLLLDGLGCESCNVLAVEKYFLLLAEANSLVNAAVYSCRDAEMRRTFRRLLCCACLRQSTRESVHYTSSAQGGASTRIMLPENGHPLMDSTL
The experiment is described as follows: LPA2R-Calciumflux assay (intracellular calcium mobilisation, FLIPR). In kind it is cell-based. Particulars: U2OS cells recombinant expressing LPA2R; inhibition of LPA-induced Ca-flux; 10 concentrations 30 uM to 1 nM, 1% DMSO. The text has this: The assay detects intra cellular calcium which is generated by cells upon activation of the LPA2 receptor by its ligand LPA. This transient calcium mobilization can be monitored using a commercial calcium detection kit (e.g. from Molecular Devices). The main component of such a kit is a dye, which becomes fluorescent when calcium is present—a transient fluorescence signal after laddition of a ligand to a test well are the result. Readers like the FLIPR (Molecular Devices) can be used to monitor such transient “Ca-flux” signals.
The signals are calculated according to peak maximum minus base line.
The assay is performed in microplates (384 wells per plate).
LPA2R-Calciumflux Assay Protocol
The assay is run according to the following procedure: • 50 uL seed cells (10000 cells/well in DMEM buffer) • Incubate 24 h at 37° C., 10% CO2 • aspirate medium • 50 uL add calcium dye 1×HBSS/HEPES buffer • incubate 1 h at 37° C. (“loading”) • equilibrate 10 min at RT • 5 uL add compounds in HEPES buffer • shake 10 sec. at 1000 rpm • incubate 15 min at RT • 20 uL add LPA (in the FLIPR Tetra) in Krebs-buffer/BSA & measurement
The cells are seeded in DMEM buffer (DMEM, 10% FCS, 10 mM HEPES, 1% Pen/Strep).
Dye loading is done in HBSS/HEPES buffer (100 mL 10×HBSS+20 mL 1M HEPES+880 mL water, pH 7.4)
The LPA is added in Krebs/BSA buffer (120 mM NaCl, 5 mM KCl, 0.62 mM MgSO4, 1.8 mM CaCl2, 10 mM HEPES, 6 mM D(+)-Glucose, 0.2% BSA, pH 7.4).
The compounds are pre-diluted in HEPES buffer (20 mM, pH 7.4), whereby the final DMSO content in the assay is kept at 1%. The compounds are pre-diluted in order to generate dose response series on the microplates. The dose response series consist of 10 concentrations for each compound from 30 uM final to 1 nM final. From all compound wells the resulting signals are referred to control wells (located on each plate besides the compound wells) in terms of % activity.
From these % activity values—along with the corresponding compound concentrations—IC50 values are fitted for each compound using standard fitting programs such as Graphpad Prism. Here the method “log(inhibitor) vs. response—Variable slope” is used.
In general terms: Calcium flux is commonly read through the fluorescence of an indicator in the cells.
As for `CCOC(=O)c1ccc(CN2CCCCC2c2cc3ccccc3[nH]2)cc1` (stereo not shown) [compound 25, 4-[2-(1H-Indol-2-yl)-piperidin-1-ylmethyl]-benzoic acid ethyl ester], the IC50 was in the range of 500 to 5000 nM. Under `COc1cccc(CN2CCCCC2c2cc3cc(OC)ccc3[nH]2)c1` (stereo not shown) [compound 82, 5-Methoxy-2-[1-(3-methoxy-benzyl)-piperidin-2-yl]-1H-indole] stands less than 500 nM; under `Cc1ccc(CN2C(C)CCCC2c2cc3cc(F)ccc3[nH]2)cc1` (stereo not shown) [compound 46, 5-Fluoro-2-[6-methyl-1-(4-methyl-benzyl)-piperidin-2-yl]-1H-indole], 500 to 5000 nM; under `Cc1ccc(CN2CCCCC2c2cc3ccccc3[nH]2)cc1C` (stereo not shown) [compound 5, 2-[1-(3,4-Dimethyl-benzyl)-piperidin-2-yl]-1H-indole], less than 500 nM.

Regarding `CC1(C)CCC(C)(C)c2cc(CN3CCCCC3c3nc4ccc(Br)cc4[nH]3)ccc21` (stereo not shown) [compound 94, 6-Bromo-2-[1-(5,5,8,8-tetramethyl-5,6,7,8-tetrahydro-naphthalen-2-ylmethyl)-piperidin-2-yl]-1H-benzo-imidazole], the IC50 is 5000 to 15000 nM. Then `Cc1cccc(CN2CCCCC2c2cc3cc(F)cc(F)c3[nH]2)c1` (stereo not shown) [compound 21, 5,7-Difluoro-2-[1-(3-methyl-benzyl)-piperidin-2-yl]-1H-indole], with 5000 to 15000 nM; and `COc1cccc(CN2CCCCC2c2cc3cc(F)ccc3[nH]2)c1` (stereo not shown) [compound 109, 5-Fluoro-2-[1-(3-methoxy-benzyl)-piperidin-2-yl]-1H-indole], with less than 500 nM; and `CC1CCCC(c2cc3cc(F)ccc3[nH]2)N1` (stereo not shown) [compound 45, 5-Fluoro-2-(6-methyl-piperidin-2-yl)-1H-indole], with 500 to 5000 nM. Under `Fc1ccc2[nH]c(C3CCCCN3Cc3ccc(Br)cc3)cc2c1` (stereo not shown) [compound 58, 2-[1-(4-Bromo-benzyl)-piperidin-2-yl]-5-fluoro-1H-indole] stands 500 to 5000 nM; under `Cc1ccc(CN2CCCCC2c2nc3cccc(C)c3[nH]2)cc1C` (stereo not shown) [compound 100, 2-[1-(3,4-Dimethyl-benzyl)-piperidin-2-yl]-7-methyl-1H-benzo-imidazole], less than 500 nM; under `Cc1ccc(CN2CCCC[C@H]2c2nc3cc(Cl)cnc3[nH]2)cc1C` [compound 141, 6-Chloro-2-[(S)-1-(3,4-dimethyl-benzyl)-piperidin-2-yl]-3H-imidazo[4,5-b]pyridine], 500 to 5000 nM. For the compound `Cc1ccc(CN2CCCCC2c2cc3cc(F)cc(F)c3[nH]2)cc1C` (stereo not shown) [compound 23, 2-[1-(3,4-Dimethyl-benzyl)-piperidin-2-yl]-5,7-difluoro-1H-indole], the IC50 fell in the range of 500 to 5000 nM.

For `Cc1ccc(CN2CCCC[C@H]2c2nc3cc(F)ccc3[nH]2)cc1C` [compound 142, 2-[(S)-1-(3,4-Dimethyl-benzyl)-piperidin-2-yl]-5-fluoro-1H-benzo-imidazole], the IC50 is less than 500 nM. Under `Cc1ccc(CN2CCC(C)CC2c2cc3cc(F)ccc3[nH]2)cc1C` (stereo not shown) [compound 87, 2-[1-(3,4-Dimethyl-benzyl)-4-methyl-piperidin-2-yl]-5-fluoro-1H-indole] stands less than 500 nM; under `Cc1ccc(CN2CCCCC2c2nc3nccnc3[nH]2)cc1C` (stereo not shown) [compound 134, 2-[1-(3,4-Dimethyl-benzyl)-piperidin-2-yl]-1H-imidazo[4,5-b]pyrazine], less than 500 nM. Under `Fc1ccc(CN2CCCC[C@H]2c2cc3cc(F)ccc3[nH]2)cc1` [compound 137, 5-Fluoro-2-[(S)-1-(4-fluoro-benzyl)-piperidin-2-yl]-1H-indole] stands 500 to 5000 nM. Consider `Fc1ccc(CN2CCCC[C@H]2c2nc3cc(F)ccc3[nH]2)cc1` [compound 131, 5-Fluoro-2-[(S)-1-(4-fluoro-benzyl)-piperidin-2-yl]-1H-benzo-imidazole], for which the IC50 is 500 to 5000 nM.

For `Cc1cccc(CN2CCCCC2c2cc3cc(F)ccc3[nH]2)c1` (stereo not shown) [compound 14, 5-Fluoro-2-[1-(3-methyl-benzyl)-piperidin 2-yl]-1H-indole], the IC50 was 500 to 5000 nM.

With `CC1CCC(c2cc3cc(F)ccc3[nH]2)N(Cc2ccc(F)cc2)C1` (stereo not shown) [compound 61, 5-Fluoro-2-[1-(4-fluoro-benzyl)-5-methyl-piperidin-2-yl]-1H-indole], the IC50 lay within 500 to 5000 nM. Under `Fc1ccc(F)c2[nH]c(C3CCCCN3)cc12` (stereo not shown) [compound 44, 4,7-Difluoro-2-piperidin-2-yl-1H-indole] stands 500 to 5000 nM; under `CC1CCCN(Cc2ccc(F)cc2)C1c1cc2ccccc2[nH]1` (stereo not shown) [compound 81, 2-[1-(4-Fluoro-benzyl)-3-methyl-piperidin-2-yl]-1H-indole], 500 to 5000 nM; under `Cc1ccc(CN2CCCCC2c2cc3cc(F)ccc3[nH]2)cc1C` (stereo not shown) [compound 15, 2-[1-(3,4-Dimethyl-benzyl)-piperidin-2-yl]-5-fluoro-1H-indole], 500 to 5000 nM. Regarding `Cc1cc(Cl)cc2nc(C3CCCCN3Cc3ccc4c(c3)C(C)(C)CCC4(C)C)[nH]c12` (stereo not shown) [compound 97, 5-Chloro-7-methyl-2-[1-(5,5,8,8-tetramethyl-5,6,7,8-tetrahydro-naphthalen-2-ylmethyl)-piperidin-2-yl]-1H-benzo-imidazole], the concentration for half-maximal inhibition (IC50) was 500 to 5000 nM. As to `N#Cc1ccc(CN2CCCCC2c2cc3ccccc3[nH]2)cc1` (stereo not shown) [compound 19, 4-[2-(1H-Indol-2-yl)-piperidin-1-ylmethyl]-benzonitrile], the IC50 lay in the range of 5000 to 15000 nM. For the compound `COc1cccc(CN2CCCCC2c2cc3ccccc3[nH]2)c1` (stereo not shown) [compound 4, 2-[1-(3-Methoxy-benzyl)-piperidin-2-yl]-1H-indole], the IC50 is less than 500 nM. `Fc1ccc(CN2CCCCC2c2cc3ccccc3[nH]2)cc1` (stereo not shown) [compound 3, 2-[1-(4-Fluoro-benzyl)-piperidin-2-yl]-1H-indole]: the IC50 is less than 500 nM. `CC1CCCC(c2cc3ccccc3[nH]2)N1Cc1ccccc1O` (stereo not shown) [compound 26, 2-[2-(1H-Indol-2-yl)-6-methyl-piperidin-1-ylmethyl]-phenol]: the half-maximal inhibitory concentration (IC50) is 500 to 5000 nM.

`CC(c1ccc(F)cc1)N1CCCCC1c1cc2cc(F)ccc2[nH]1` (stereo not shown) [compound 72, 5-Fluoro-2-{1-[1-(4-fluoro-phenyl)-ethyl]-piperidin-2-yl}-1H-indole]: the 50% inhibitory concentration (IC50) is less than 500 nM. Then `Fc1ccc2[nH]c(C3CCCCN3Cc3ccccc3)nc2c1` (stereo not shown) [compound 102, 2-(1-Benzyl-piperidin-2-yl)-5-fluoro-1H-benzo-imidazole], with 500 to 5000 nM; and `Cc1cccc(CN2CCCCC2c2nc3ccc(Cl)cc3[nH]2)c1` (stereo not shown) [compound 91, 6-Chloro 2-[1-(3-methyl-benzyl)-piperidin-2-yl]-1H-benzo-imidazole], with less than 500 nM. For the compound `Fc1ccc(CN2CCCCC2c2nc3cc(F)ccc3[nH]2)cc1` (stereo not shown) [compound 49, 5-Fluoro-2-[1-(4-fluoro-benzyl)-piperidin-2-yl]-1H-benzo-imidazole], the concentration for half-maximal inhibition (IC50) is less than 500 nM. Take `Cc1c(C2CCCCN2Cc2ccc(F)cc2)[nH]c2ccc(F)cc12` (stereo not shown) [compound 75, 5-Fluoro-2-[1-(4-fluoro-benzyl)-piperidin-2-yl]-3-methyl-1H-indole]: the IC50 is less than 500 nM.

`FC(F)(F)c1cccc(CN2CCCCC2c2nc3ccc(Cl)cc3[nH]2)c1` (stereo not shown) [compound 89]: the IC50 was 500 to 5000 nM. Then `Cc1ccc(CN2CCCCC2c2nc3ccc(Cl)cc3[nH]2)cc1C(F)(F)F` (stereo not shown) [compound 90], with 500 to 5000 nM. Under `COc1ccc(CN2CCC(C)CC2c2cc3cc(F)ccc3[nH]2)cc1` (stereo not shown) [compound 64, 5-Fluoro-2-[1-(4-methoxy-benzyl)-4-methyl-piperidin-2-yl]-1H-indole] stands 500 to 5000 nM.

`Cc1ccc(CN2CCCCC2c2nc3ccc(Br)cc3[nH]2)cc1C(F)(F)F` (stereo not shown) [compound 93]: the IC50 fell in the range of 500 to 5000 nM. Then `Cc1ccc(CN2CCCCC2c2nc3cc(Cl)cnc3[nH]2)cc1C` (stereo not shown) [compound 128, 6-Chloro-2-[1-(3,4-dimethyl-benzyl)-piperidin-2-yl]-3H-imidazo[4,5-b]pyridine], with less than 500 nM; and `CC1CCCC(c2cc3cc(F)ccc3[nH]2)N1Cc1ccc(S(C)(=O)=O)cc1` (stereo not shown) [compound 33], with 500 to 5000 nM.

As for `CCc1nc(CN2CCCCC2c2nc3cc(F)ccc3[nH]2)cs1` (stereo not shown) [compound 121, 2-[1-(2-Ethyl-thiazol-4-ylmethyl)-piperidin-2-yl]-5-fluoro-1H-benzo-imidazole], the half-maximal inhibitory concentration (IC50) was less than 500 nM.

On to `Cc1ccc(CN2CCCCC2c2nc3cc(F)ccc3n2C)cc1C` (stereo not shown) [compound 103, 2-[1-(3,4-Dimethyl-benzyl)-piperidin-2-yl]-5-fluoro-1-methyl-1H-benzo-imidazole], for which the 50% inhibitory concentration (IC50) is 500 to 5000 nM.

Usually IC50 stands for the midpoint of a concentration-inhibition curve.

The values are drawn from patent publication US9527850B2, “Benzyl piperidine compounds as lysophosphatidic acid (LPA) receptor antagonist” (Merck Patent GmbH, priority 2011, dated 2016).
